Molecular target: Gamma-secretase
Test: Inhibitory activity against Gamma-secretase in detergent-solubilized HeLa cell membranes with recombinant APP-based substrate

Structure (SMILES)	IC50
CC[C@@H](C)[C@@H](NC(=O)[C@H](NC(=O)[C@H](NC(=O)C(C)(C)NC(=O)CNC(=O)[C@H](NC(=O)OC(C)(C)C)C(C)C)C(C)C)C(C)C)C(=O)NC(C)(C)C(=O)N[C@@H](C(=O)N[C@@H](C(=O)NC(C)(C)C(=O)OC)C(C)C)[C@H](C)OCc1ccccc1	90 nM
CC[C@@H](C)[C@@H](NC(=O)[C@H](NC(=O)[C@H](NC(=O)OC(C)(C)C)C(C)C)C(C)C)C(=O)NC(C)(C)C(=O)N[C@@H](C(=O)N[C@@H](C(=O)NC(C)(C)C(=O)N[C@@H](C(=O)N[C@@H](C(=O)NC(C)(C)C(=O)OC)[C@H](C)CC)C(C)C)C(C)C)[C@H](C)OCc1ccccc1	25 nM
CC[C@H](C)[C@H](NC(=O)[C@@H](NC(=O)[C@@H](NC(=O)C(C)(C)NC(=O)CNC(=O)[C@@H](NC(=O)C(C)(C)NC(=O)[C@H](CC(C)C)NC(=O)OC(C)(C)C)C(C)C)C(C)C)C(C)C)C(=O)NC(C)(C)C(=O)N[C@H](C(=O)N[C@H](C(=O)NC(C)(C)C(=O)N[C@H](C(=O)N[C@H](C(=O)NC(C)(C)C(=O)OC)[C@@H](C)CC)C(C)C)C(C)C)[C@@H](C)OCc1ccccc1	4700 nM
CC[C@@H](C)[C@@H](NC(=O)[C@H](NC(=O)[C@H](NC(=O)C(C)(C)NC(=O)OC(C)(C)C)C(C)C)C(C)C)C(=O)NC(C)(C)C(=O)N[C@@H](C(=O)N[C@@H](C(=O)NC(C)(C)C(=O)N[C@@H](C(=O)N[C@@H](C(=O)NC(C)(C)C(=O)OC)[C@H](C)CC)C(C)C)C(C)C)[C@H](C)OCc1ccccc1 (single isomer, unassigned)	28 nM
CC[C@@H](C)[C@@H](NC(=O)[C@H](NC(=O)[C@H](NC(=O)C(C)(C)NC(=O)CNC(=O)OC(C)(C)C)C(C)C)C(C)C)C(=O)NC(C)(C)C(=O)N[C@@H](C(=O)N[C@@H](C(=O)NC(C)(C)C(=O)N[C@@H](C(=O)N[C@@H](C(=O)NC(C)(C)C(=O)OC)[C@H](C)CC)C(C)C)C(C)C)[C@H](C)OCc1ccccc1	12 nM
CC[C@@H](C)[C@@H](NC(=O)[C@H](NC(=O)[C@H](NC(=O)C(C)(C)NC(=O)CNC(=O)[C@H](NC(=O)C(C)(C)NC(=O)[C@@H](CC(C)C)NC(=O)OC(C)(C)C)C(C)C)C(C)C)C(C)C)C(=O)NC(C)(C)C(=O)N[C@@H](C(=O)N[C@@H](C(=O)NC(C)(C)C(=O)N[C@@H](C(=O)N[C@@H](C(=O)NC(C)(C)C(=O)OC)[C@H](C)CC)C(C)C)C(C)C)[C@H](C)OCc1ccccc1	16 nM
CC[C@H](C)[C@H](NC(=O)[C@@H](NC(=O)[C@@H](NC(=O)C(C)(C)NC(=O)CNC(=O)[C@@H](NC(=O)C(C)(C)NC(=O)OC(C)(C)C)C(C)C)C(C)C)C(C)C)C(=O)NC(C)(C)C(=O)N[C@H](C(=O)N[C@H](C(=O)NC(C)(C)C(=O)N[C@H](C(=O)N[C@H](C(=O)NC(C)(C)C(=O)OC)[C@@H](C)CC)C(C)C)C(C)C)[C@@H](C)OCc1ccccc1	910 nM
CC[C@H](C)[C@H](NC(=O)[C@@H](NC(=O)[C@@H](NC(=O)C(C)(C)NC(=O)CNC(=O)OC(C)(C)C)C(C)C)C(C)C)C(=O)NC(C)(C)C(=O)N[C@H](C(=O)N[C@H](C(=O)NC(C)(C)C(=O)N[C@H](C(=O)N[C@H](C(=O)NC(C)(C)C(=O)OC)[C@@H](C)CC)C(C)C)C(C)C)[C@@H](C)OCc1ccccc1	360 nM
CC[C@H](C)[C@H](NC(=O)[C@@H](NC(=O)[C@@H](NC(=O)C(C)(C)NC(=O)CNC(=O)[C@@H](NC(=O)OC(C)(C)C)C(C)C)C(C)C)C(C)C)C(=O)NC(C)(C)C(=O)N[C@H](C(=O)N[C@H](C(=O)NC(C)(C)C(=O)OC)C(C)C)[C@@H](C)OCc1ccccc1	30000 nM
CC[C@H](C)[C@H](NC(=O)[C@@H](NC(=O)[C@@H](NC(=O)C(C)(C)NC(=O)CNC(=O)[C@@H](NC(=O)OC(C)(C)C)C(C)C)C(C)C)C(C)C)C(=O)NC(C)(C)C(=O)N[C@H](C(=O)N[C@H](C(=O)NC(C)(C)C(=O)N[C@H](C(=O)N[C@H](C(=O)NC(C)(C)C(=O)OC)[C@@H](C)CC)C(C)C)C(C)C)[C@@H](C)OCc1ccccc1	780 nM
CC[C@H](C)[C@H](NC(=O)[C@@H](NC(=O)[C@@H](NC(=O)OC(C)(C)C)C(C)C)C(C)C)C(=O)NC(C)(C)C(=O)N[C@H](C(=O)N[C@H](C(=O)NC(C)(C)C(=O)N[C@H](C(=O)N[C@H](C(=O)NC(C)(C)C(=O)OC)[C@@H](C)CC)C(C)C)C(C)C)[C@@H](C)OCc1ccccc1	10000 nM
CC[C@H](C)[C@H](NC(=O)[C@@H](NC(=O)[C@@H](NC(=O)C(C)(C)NC(=O)OC(C)(C)C)C(C)C)C(C)C)C(=O)NC(C)(C)C(=O)N[C@H](C(=O)N[C@H](C(=O)NC(C)(C)C(=O)N[C@H](C(=O)N[C@H](C(=O)NC(C)(C)C(=O)OC)[C@@H](C)CC)C(C)C)C(C)C)[C@@H](C)OCc1ccccc1	3100 nM
CC[C@H](C)[C@H](NC(=O)[C@@H](NC(=O)[C@@H](NC(=O)C(C)(C)NC(=O)CNC(=O)[C@@H](NC(=O)C(C)(C)NC(=O)[C@H](CC(C)C)NC(=O)CNC(=O)OC(C)(C)C)C(C)C)C(C)C)C(C)C)C(=O)NC(C)(C)C(=O)N[C@H](C(=O)N[C@H](C(=O)NC(C)(C)C(=O)N[C@H](C(=O)N[C@H](C(=O)NC(C)(C)C(=O)OC)[C@@H](C)CC)C(C)C)C(C)C)[C@@H](C)OCc1ccccc1	11000 nM
CC[C@@H](C)[C@@H](NC(=O)[C@H](NC(=O)[C@H](NC(=O)C(C)(C)NC(=O)CNC(=O)[C@H](NC(=O)OC(C)(C)C)C(C)C)C(C)C)C(C)C)C(=O)NC(C)(C)C(=O)N[C@@H](C(=O)N[C@@H](C(=O)NC(C)(C)C(=O)N[C@@H](C(=O)N[C@@H](C(=O)NC(C)(C)C(=O)OC)[C@H](C)CC)C(C)C)C(C)C)[C@H](C)OCc1ccccc1	0.14 nM
CC[C@@H](C)[C@@H](NC(=O)[C@H](NC(=O)[C@H](NC(=O)C(C)(C)NC(=O)CNC(=O)[C@H](NC(=O)C(C)(C)NC(=O)[C@@H](CC(C)C)NC(=O)CNC(=O)OC(C)(C)C)C(C)C)C(C)C)C(C)C)C(=O)NC(C)(C)C(=O)N[C@@H](C(=O)N[C@@H](C(=O)NC(C)(C)C(=O)N[C@@H](C(=O)N[C@@H](C(=O)NC(C)(C)C(=O)OC)[C@H](C)CC)C(C)C)C(C)C)[C@H](C)OCc1ccccc1	26 nM
CC[C@@H](C)[C@@H](NC(=O)[C@H](NC(=O)[C@H](NC(=O)C(C)(C)NC(=O)CNC(=O)[C@H](NC(=O)C(C)(C)NC(=O)OC(C)(C)C)C(C)C)C(C)C)C(C)C)C(=O)NC(C)(C)C(=O)N[C@@H](C(=O)N[C@@H](C(=O)NC(C)(C)C(=O)N[C@@H](C(=O)N[C@@H](C(=O)NC(C)(C)C(=O)OC)[C@H](C)CC)C(C)C)C(C)C)[C@H](C)OCc1ccccc1	14 nM

Molecular target: Gamma-secretase
Test: Inhibitory activity against Gamma-secretase from APP-transfected CHO cells
Format: functional, cell-based, Homo sapiens

Structure (SMILES)	IC50
CC[C@@H](C)[C@@H](NC(=O)[C@H](NC(=O)[C@H](NC(=O)C(C)(C)NC(=O)CNC(=O)[C@H](NC(=O)OC(C)(C)C)C(C)C)C(C)C)C(C)C)C(=O)NC(C)(C)C(=O)N[C@@H](C(=O)N[C@@H](C(=O)NC(C)(C)C(=O)N[C@@H](C(=O)N[C@@H](C(=O)NC(C)(C)C(=O)OC)[C@H](C)CC)C(C)C)C(C)C)[C@H](C)OCc1ccccc1	9 nM
